Test results from patent publication US20110040088A1, “FUSED HETEROCYCLIC COMPOUNDS” (priority 2003, published 2011).
Where two headings read alike, the source gives them in different places.

What was measured:
5-HT2A receptor = 5-HT2A receptor (UniProt P28223); test: 5-HT2A receptor radioligand binding ([3H]ketanserin); conditions: read-out: Ki 5-HT2A, table does not say whether rat cortex or human recombinant (NIH3T3) receptor;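 note: competitive displacement binding on membranes, either from rat cerebral cortex or from NIH3T3 cells stably expressing human 5-HT2A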
Method: The affinity of the compounds for the rat 5-HT2A receptor was evaluated by competitive radioligand binding assay using [^3H]ketanserine as the radioligand. The assay was performed on membranes from rat cortex as previously described (Schotte, A. et al., Psychopharmacology (1996) 124: 57-73). Briefly, brain tissue (rat cortex) was homogenized in 20 volumes per wet weight tissue of Tris-HCl buffer (50 mM, pH 7.4). The total membrane fraction was collected by centrifugation and washed by subsequent centrifugation runs (25 min at 25,000 g at 4° C.). Membranes were re-suspended in Tris-HCl buffer (50 mM, pH 7.4) containing 1 nM [^3H]ketanserin. Non-specific binding was estimated in the presence of 10 μM risperidone.

[1] = target: human recombinant 5-HT2B receptor (Homo sapiens, UniProt P41595); test: 5-HT2B receptor radioligand binding ([3H]mesulergine, CHO membranes);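 note: competitive displacement binding on membranes of CHO cells stably expressing the receptor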
Sequence of human recombinant 5-HT2B receptor (P41595 whole entry): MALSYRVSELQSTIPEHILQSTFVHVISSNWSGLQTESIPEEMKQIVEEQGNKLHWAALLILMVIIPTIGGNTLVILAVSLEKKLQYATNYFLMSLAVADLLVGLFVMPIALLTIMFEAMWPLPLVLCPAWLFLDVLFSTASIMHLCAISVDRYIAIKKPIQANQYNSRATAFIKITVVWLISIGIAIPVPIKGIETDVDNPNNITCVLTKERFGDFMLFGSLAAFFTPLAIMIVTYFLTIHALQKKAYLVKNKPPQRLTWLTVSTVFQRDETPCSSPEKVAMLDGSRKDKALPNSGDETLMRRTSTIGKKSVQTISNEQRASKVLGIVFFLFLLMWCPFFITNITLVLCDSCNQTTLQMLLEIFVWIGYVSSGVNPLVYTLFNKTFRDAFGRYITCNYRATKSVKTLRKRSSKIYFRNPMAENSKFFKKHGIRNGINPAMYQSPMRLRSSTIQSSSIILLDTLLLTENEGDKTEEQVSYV
Method: (§1) Affinity for 5HT2 Receptor Binding Sites
(§2) Receptor binding was performed using the human recombinant 5-HT2A (GB: X57830), 5-HT2B (GB: Z36748) and 5-HT2c (GB: M81778) receptors. The affinity of the compounds for the 3 different human 5-HT2 receptor subtypes was evaluated by competitive radioligand binding assays using [^3H]ketanserin (h5-HT2A) or [^3H]mesulergine (h5-HT2B and h5-HT2c). The assays were performed on membranes prepared from NIH3T3 stably transfected with h5-HT2A or CHO stably transfected with h5-HT2B and h5-HT2C.

[2] = target: T1, human recombinant 5-HT2C receptor (Homo sapiens, UniProt P28335); test: 5-HT2C receptor radioligand binding ([3H]mesulergine, CHO membranes);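 note: competitive displacement of the tritiated ligand, using membranes from CHO cells stably transfected with the human receptor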
T1 sequence (P28335 33-458): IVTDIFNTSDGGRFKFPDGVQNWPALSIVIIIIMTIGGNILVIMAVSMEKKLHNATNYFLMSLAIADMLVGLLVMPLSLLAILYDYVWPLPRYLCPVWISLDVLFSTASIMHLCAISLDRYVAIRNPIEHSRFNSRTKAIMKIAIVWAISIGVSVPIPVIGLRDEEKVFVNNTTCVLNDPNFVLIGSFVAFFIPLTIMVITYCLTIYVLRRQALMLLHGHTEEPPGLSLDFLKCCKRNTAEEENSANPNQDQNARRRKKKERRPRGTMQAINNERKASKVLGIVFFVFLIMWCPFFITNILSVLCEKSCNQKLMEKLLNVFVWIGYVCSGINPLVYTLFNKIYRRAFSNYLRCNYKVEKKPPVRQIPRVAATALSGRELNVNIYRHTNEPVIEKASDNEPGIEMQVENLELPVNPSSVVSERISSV
Method: as §1, §2

rat 5-HT7a receptor = target: T2, rat 5-HT7a receptor (Rattus norvegicus, UniProt P32305); test: 5-HT7 receptor radioligand binding ([3H]5-CT, membranes of transfected HEK-293 cells); conditions: rat 5-HT7a in HEK-293 membranes, 1 nM [3H]5-CT
T2 construct: expressed in transfected cells
T2 sequence (P32305 whole entry): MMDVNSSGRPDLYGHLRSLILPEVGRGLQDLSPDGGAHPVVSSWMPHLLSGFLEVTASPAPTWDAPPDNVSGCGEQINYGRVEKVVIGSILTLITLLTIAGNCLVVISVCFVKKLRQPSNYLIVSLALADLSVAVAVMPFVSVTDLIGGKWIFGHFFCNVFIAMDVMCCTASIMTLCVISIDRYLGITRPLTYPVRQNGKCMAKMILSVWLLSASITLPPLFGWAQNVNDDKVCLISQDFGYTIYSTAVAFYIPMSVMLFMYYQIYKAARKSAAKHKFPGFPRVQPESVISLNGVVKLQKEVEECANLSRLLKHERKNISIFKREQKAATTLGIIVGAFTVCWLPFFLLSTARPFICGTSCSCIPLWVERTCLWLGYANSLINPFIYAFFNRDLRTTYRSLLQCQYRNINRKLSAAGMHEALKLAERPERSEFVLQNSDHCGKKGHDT

[3] = read-out: Ki 5-HT2C, h5-HT2C in CHO membranes, [3H]mesulergine

SMILES	Ki (5-HT2A receptor) [nM]	Ki [1] [nM]	Ki [2] [nM]	Ki (rat 5-HT7a receptor) [nM]	Ki [2, 3] [nM]	Ki ([1]; read-out: Ki 5-HT2B, h5-HT2B in CHO membranes, [3H]mesulergine) [nM]
Oc1ccc(Cn2nc(-c3ccc(Cl)cc3)c3c2CCNCC3)cc1F [Example 160, 4-[3-(4-Chloro-phenyl)-5,6,7,8-tetrahydro-4H-1,2,6-triaza-azulen-1-ylmethyl]-2-fluoro-phenol]	300	350	3500	7		
CN1CCc2c(-c3ccc(Cl)cc3)nn(Cc3ccccc3)c2CC1 [Example 165, 1-Benzyl-3-(4-chloro-phenyl)-6-methyl-1,4,5,6,7,8-hexahydro-1,2,6-triaza-azulene]	100	310	180	4		
CCN1CCc2c(-c3ccc(Cl)cc3)nn(Cc3ccccc3)c2CC1 [Example 166, 1-Benzyl-3-(4-chloro-phenyl)-6-ethyl-1,4,5,6,7,8-hexahydro-1,2,6-triaza-azulene]	80	560	590	8		
c1ccc(-c2c3c(nn2C2CCCCC2)CCNCC3)cc1 [Example 177, 2-Cyclohexyl-3-phenyl-2,4,5,6,7,8-hexahydro-1,2,6-triaza-azulene]	7	7	110	80		
c1ccc(-c2c3c(nn2C2CCCC2)CCNCC3)cc1 [Example 180, 2-Cyclopentyl-3-phenyl-2,4,5,6,7,8-hexahydro-1,2,6-triaza-azulene]	1.5	1.4	12	10		
c1cc(-c2c3c(nn2C2CCCC2)CCNCC3)cs1 [Example 192, 2-Cyclopentyl-3-thiophen-3-yl-2,4,5,6,7,8-hexahydro-1,2,6-triaza-azulene]	2.5	0.9	15	20		
CC(C)n1nc2c(c1-c1ccc(C#N)cc1)CCNCC2 [Example 212, 4-(2-Isopropyl-2,4,5,6,7,8-hexahydro-1,2,6-triaza-azulen-3-yl)-benzonitrile]	25		425	93		12
FC(F)(F)c1ccc(-c2c3c(nn2C2CCCC2)CCNCC3)cc1 [Example 218, 2-Cyclopentyl-3-(4-trifluoromethyl-phenyl)-2,4,5,6,7,8-hexahydro-1,2,6-triaza-azulene]	1.7	1.8	15	75		
c1cc(-c2c3c(nn2C2CCCC2)CCNCC3)co1 [Example 232, 2-Cyclopentyl-3-furan-3-yl-2,4,5,6,7,8-hexahydro-1,2,6-triaza-azulene]	25	0.5	66	20		
c1csc(-c2c3c(nn2C2CCCC2)CCNCC3)c1 [Example 233, 2-Cyclopentyl-3-thiophen-2-yl-2,4,5,6,7,8-hexahydro-1,2,6-triaza-azulene]	4	25	16	15		
Fc1ccc(-c2c3c(nn2C2CCCC2)CCNCC3)cc1F [Example 236, 2-Cyclopentyl-3-(3,4-difluoro-phenyl)-2,4,5,6,7,8-hexahydro-1,2,6-triaza-azulene]	7	4.5	32	950		
Fc1cc(-c2c3c(nn2C2CCCC2)CCNCC3)ccc1Cl [Example 241, 3-(4-Chloro-3-fluoro-phenyl)-2-cyclopentyl-2,4,5,6,7,8-hexahydro-1,2,6-triaza-azulene]	9	9.5	38	310		
c1ccc(-c2c3c(nn2C2CCC2)CCNCC3)cc1 [Example 276, 2-Cyclobutyl-3-phenyl-2,4,5,6,7,8-hexahydro-1,2,6-triaza-azulene]	3	2.5		90	90	
FC(F)(F)c1ccc(-c2c3c(nn2C2CCC2)CCNCC3)cc1 [Example 279, 2-Cyclobutyl-3-(4-trifluoromethyl-phenyl)-2,4,5,6,7,8-hexahydro-1,2,6-triaza-azulene]	0.8	1	45	80		

Further lines, with some results ahead:

Ki (5-HT2A receptor) [nM]	Ki [1] [nM]	Ki [2] [nM]	Ki (rat 5-HT7a receptor) [nM]	Ki [2, 3] [nM]	SMILES	Ki ([1]; read-out: Ki 5-HT2B, h5-HT2B in CHO membranes, [3H]mesulergine) [nM]
1.5	1.8	11	37		Clc1ccc(-c2c3c(nn2C2CCCC2)CCNCC3)cc1 [Example 181, 3-(4-Chloro-phenyl)-2-cyclopentyl-2,4,5,6,7,8-hexahydro-1,2,6-triaza-azulene]	
0.74	1.4	18	90		Fc1ccc(-c2c3c(nn2C2CCCC2)CCNCC3)cc1 [Example 182, 2-Cyclopentyl-3-(4-fluoro-phenyl)-2,4,5,6,7,8-hexahydro-1,2,6-triaza-azulene]	
7	54	70	240		CCC(CC)n1nc2c(c1-c1cccc(F)c1)CCNCC2 [Example 183, 2-(1-Ethyl-propyl)-3-(3-fluoro-phenyl)-2,4,5,6,7,8-hexahydro-1,2,6-triaza-azulene]	
1	17	15	120		CCC(CC)n1nc2c(c1-c1ccc(F)cc1)CCNCC2 [Example 184, 2-(1-Ethyl-propyl)-3-(4-fluoro-phenyl)-2,4,5,6,7,8-hexahydro-1,2,6-triaza-azulene]	
1	24	20	61		CCC(CC)n1nc2c(c1-c1ccccc1)CCNCC2 [Example 186, 2-(1-Ethyl-propyl)-3-phenyl-2,4,5,6,7,8-hexahydro-1,2,6-triaza-azulene]	
10	22	51	16		CC(C)n1nc2c(c1-c1ccc(F)cc1)CCNCC2 [Example 190, 3-(4-Fluoro-phenyl)-2-isopropyl-2,4,5,6,7,8-hexahydro-1,2,6-triaza-azulene]	
1.1	1.4		6	12	Cc1ccc(-c2c3c(nn2C(C)C)CCNCC3)cc1 [Example 209, 2-Isopropyl-3-p-tolyl-2,4,5,6,7,8-hexahydro-1,2,6-triaza-azulene]	
2	0.75	20	7		CCc1ccc(-c2c3c(nn2C(C)C)CCNCC3)cc1 [Example 210, 3-(4-Ethyl-phenyl)-2-isopropyl-2,4,5,6,7,8-hexahydro-1,2,6-triaza-azulene]	
5	0.5		8.5	18	CC(C)n1nc2c(c1-c1ccc(Cl)cc1)CCNCC2 [Example 211, 3-(4-Chloro-phenyl)-2-isopropyl-2,4,5,6,7,8-hexahydro-1,2,6-triaza-azulene]	
7.5	4.7		12	80	CC(C)n1nc2c(c1-c1ccc(C(F)(F)F)cc1)CCNCC2 [Example 213, 2-Isopropyl-3-(4-trifluoromethyl-phenyl)-2,4,5,6,7,8-hexahydro-1,2,6-triaza-azulene]	
6	20	17	70		CC(C)(C)n1nc2c(c1-c1ccc(F)cc1)CCNCC2 [Example 216, 2-tert-Butyl-3-(4-fluoro-phenyl)-2,4,5,6,7,8-hexahydro-1,2,6-triaza-azulene]	
1	0.65	10	25		Cc1ccc(-c2c3c(nn2C2CCCC2)CCNCC3)cc1 [Example 217, 2-Cyclopentyl-3-p-tolyl-2,4,5,6,7,8-hexahydro-1,2,6-triaza-azulene]	
1.3	0.55	6.8	55		COc1ccc(-c2c3c(nn2C2CCCC2)CCNCC3)cc1 [Example 220, 2-Cyclopentyl-3-(4-methoxy-phenyl)-2,4,5,6,7,8-hexahydro-1,2,6-triaza-azulene]	
1	0.5	13	40		Clc1ccc(-c2c3c(nn2C2CCC2)CCNCC3)cc1 [Example 238, 3-(4-Chloro-phenyl)-2-cyclobutyl-2,4,5,6,7,8-hexahydro-1,2,6-triaza-azulene]	
8	1.3		21	45	COc1ccc(-c2c3c(nn2C(C)C)CCNCC3)cc1 [Example 242, 2-Isopropyl-3-(4-methoxy-phenyl)-2,4,5,6,7,8-hexahydro-1,2,6-triaza-azulene]	
0.9	3	40	150		Fc1ccc(-c2c3c(nn2C2CCC2)CCNCC3)cc1 [Example 277, 2-Cyclobutyl-3-(4-fluoro-phenyl)-2,4,5,6,7,8-hexahydro-1,2,6-triaza-azulene]	
0.1	0.2	10	35		Cc1ccc(-c2c3c(nn2C2CCC2)CCNCC3)cc1 [Example 278, 2-Cyclobutyl-3-p-tolyl-2,4,5,6,7,8-hexahydro-1,2,6-triaza-azulene]	
